Results taken from US20060040917A1, “Benzoxazepine derivatives as selective estrogen receptor modulators” (priority 2004, published 2006).

Columns and labels:
[1] = target: T1, human estrogen receptor α (Homo sapiens, UniProt P03372); experiment: Estrogen Receptor α Flash Plate Assay; conditions: displacement of radio-labeled estrogen (0.5 nM), FlashPlate, 1 h room temperature; read-out: ERα Binding IC50
T1 construct: purchased Panvera
T1 sequence (P03372 1-595): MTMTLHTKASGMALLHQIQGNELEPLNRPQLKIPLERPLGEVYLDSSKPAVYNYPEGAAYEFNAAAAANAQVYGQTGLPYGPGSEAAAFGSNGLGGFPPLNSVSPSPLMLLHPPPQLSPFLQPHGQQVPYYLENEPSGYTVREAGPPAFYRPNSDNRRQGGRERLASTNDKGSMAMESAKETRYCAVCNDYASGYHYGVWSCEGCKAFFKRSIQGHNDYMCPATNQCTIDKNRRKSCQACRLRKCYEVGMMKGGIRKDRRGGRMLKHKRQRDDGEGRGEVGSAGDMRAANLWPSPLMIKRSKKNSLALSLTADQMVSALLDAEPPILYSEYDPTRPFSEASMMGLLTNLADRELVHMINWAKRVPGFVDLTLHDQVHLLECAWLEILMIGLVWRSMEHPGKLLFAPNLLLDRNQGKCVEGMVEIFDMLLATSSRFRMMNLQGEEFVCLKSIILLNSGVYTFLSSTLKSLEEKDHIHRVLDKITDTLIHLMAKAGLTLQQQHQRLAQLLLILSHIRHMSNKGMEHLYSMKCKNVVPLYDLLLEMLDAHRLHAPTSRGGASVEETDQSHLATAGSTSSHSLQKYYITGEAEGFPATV
Procedure: Estrogen Receptor α Flash Plate Assay
This assay monitors binding of radio-labeled estrogen to the estrogen receptor. It is performed on a BioMek 2000 (Beckman). Plates are read in a scintillation counter (Packard TopCount), with decreased counts an indication of binding of a compound to the receptor. The assay was run according to the procedure described by Allan, et al., Anal. Biochem. (1999), 275(2), 243-247.
On day one, 100 μL of Estrogen Screening Buffer (ESB, Panvera) containing 5 mM dithiothreitol (DTT, Panvera), 0.5 μg mouse anti-estrogen receptor monoclonal antibody (SRA-1010, Stressgen) and 50 ng purified human estrogen receptor α (Panvera) were added to each well of a 96 well FlashPlate Plus plate crosslinked with goat anti-mouse antibodies (NEN Life Sciences). The plate was sealed and incubated at 4° C. overnight.
On day two, each well was washed three times with 200 μL PBS, pH 7.2, at room temperature. To each well was then added 98 μL radio-labeled estrogen (0.5 nM, which equals 6 nCi for a 120 Ci/mmol batch, Amersham), diluted in ESB and 5 mM dithiothreitol (DTT). To individual wells were then added 2.5 μL test compound diluted in 30% (v/v) dimethyl sulfoxide/50 mM HEPES, pH 7.5. The wells were mixed three times by aspiration, the plate sealed and incubated at room temperature for one hour. The wells were then counted for 1 min in a TopCount scintillation counter (Packard).
(§1) Representative compound of the present invention were tested according to the procedure described above for binding to the Estrogen Receptor a and Estrogen Receptor β, with results as listed in Table 6.

hER-β = target: T2, hER-β (Homo sapiens, UniProt Q92731); experiment: Estrogen Receptor β Fluorescence Polarization Assay; conditions: displacement of Fluormone ES2, fluorescence polarization, 1 h room temperature; read-out: ERβ Binding IC50
T2 construct: purchased Panvera
Source text: Estrogen Receptor β Fluorescence Polarization Assay
This assay monitors binding of a fluorescent analog of estrogen (Fluormone ES2, Panvera) to the estrogen receptor. Plates are read in a fluorometer that can be set to polarization mode. A decrease in […] relative to vehicle control is an indication of binding of a compound to the receptor.
It is crucial to avoid introduction of air bubbles into the reaction in each well of the 96 well plate throughout this procedure. (Bubbles on the surface of the reaction disrupt light flow, affecting the polarization reading.) However, it is also crucial to effectively mix the reaction components upon addition to the well.
On ice, a 2× standard mixture of Assay Buffer (Panvera), 10 nM DTT and 40 nM ES2 was prepared. On ice, a 2× reaction mixture of Assay Buffer (Panvera), and 20 nM hER-β (Panvera) and 40 nM ES2 was also prepared.
Dilutions of test compound were prepared in 30% (v/v) dimethyl sulfoxide/50 mM HEPES, pH 7.5. At this point, the dilutions were 40× the final required concentration.
The standard mixture at 50 μL was then added to each well. The reaction mixture at 48 μL was added to all wells. The compound dilution at 2.5 μL was added to the appropriate wells. The reaction mixtures were mixed using a manual pipette, a roll of aluminum foil adhesive cover was placed on the plate and the plate incubated at room temperature for 1 hour.
Each well on the plate was then read in an LjL Analyst with an excitation wavelength of […] and an emission wavelength of 538.
as §1

T2 sequence (Q92731 whole entry): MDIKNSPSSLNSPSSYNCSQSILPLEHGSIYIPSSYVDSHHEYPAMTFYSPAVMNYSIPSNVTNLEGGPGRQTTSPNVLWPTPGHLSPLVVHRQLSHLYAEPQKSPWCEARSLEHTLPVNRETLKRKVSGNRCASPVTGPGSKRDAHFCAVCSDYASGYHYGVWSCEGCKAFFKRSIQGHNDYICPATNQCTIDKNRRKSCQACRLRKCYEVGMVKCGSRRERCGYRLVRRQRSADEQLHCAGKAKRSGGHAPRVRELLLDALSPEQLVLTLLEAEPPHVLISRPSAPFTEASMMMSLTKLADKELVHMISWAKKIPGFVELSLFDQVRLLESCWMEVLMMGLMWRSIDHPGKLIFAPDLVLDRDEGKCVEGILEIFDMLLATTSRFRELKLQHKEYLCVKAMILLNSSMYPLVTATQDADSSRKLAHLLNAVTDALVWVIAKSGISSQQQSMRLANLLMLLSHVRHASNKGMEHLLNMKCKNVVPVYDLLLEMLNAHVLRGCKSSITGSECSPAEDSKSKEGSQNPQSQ

| Structure (SMILES) | IC50 [1] [nM] | IC50 (hER-β) [nM] |
| --- | --- | --- |
| Oc1ccc(C2COc3cc(O)ccc3N(Cc3ccc(OCCN4CCCCC4)cc3)C2)cc1 (centres unmarked) [Compound 12, 7-(4-Hydroxy-phenyl)-9-[4-(2-piperidin-1-yl-ethoxy)-benzyl]-6,7,8,9-tetrahydro-5-oxa-9-aza-benzocyclohepten-3-ol] | 430 | 1100 |
| O=C(c1cccc(OCCN2CCCCC2)c1)N1CC(c2cccc(O)c2)COc2cc(O)ccc21 (centres unmarked) [Compound 13, [3-Hydroxy-7-(3-hydroxy-phenyl)-7,8-dihydro-6H-5-oxa-9-aza-benzocyclohepten-9-yl]-[3-(2-piperidin-1-yl-ethoxy)-phenyl]-methanone] | 81 | 2600 |
| CC(=O)Oc1cccc(C2COc3cc(OC(C)=O)ccc3N(Cc3ccc(OCCN4CCCCC4)cc3)C2)c1 (centres unmarked) [Compound 16] | 120 | 670 |
| Oc1ccc(C2COc3cc(O)ccc3N(Cc3cccc(OCCCl)c3)C2)cc1 (centres unmarked) [Compound 18, 9-[3-(2-Chloro-ethoxy)-benzyl]-7-(4-hydroxy-phenyl)-6,7,8,9-tetrahydro-5-oxa-9-aza-benzocyclohepten-3-ol] | 66 | 88 |
| COCOc1ccc(C2COc3cc(OCOC)ccc3N(Cc3cccc(OCCCl)c3)C2)cc1 (centres unmarked) [Compound 19, 9-[3-(2-Chloro-ethoxy)-benzyl]-3-methoxymethoxy-7-(4-methoxymethoxy-phenyl)-6,7,8,9-tetrahydro-5-oxa-9-aza-benzocycloheptene] | > 1000 | > 1000 |
| COCOc1ccc(C2COc3cc(OCOC)ccc3N(Cc3cccc(OCCN4CCCCC4)c3)C2)cc1 (centres unmarked) [Compound 20, 3-Methoxymethoxy-7-(4-methoxymethoxy-phenyl)-9-[3-(2-piperidin-1-yl-ethoxy)-benzyl]-6,7,8,9-tetrahydro-5-oxa-9-aza-benzocycloheptene] | > 1000 | > 1000 |
| Oc1ccc(C2COc3cc(O)ccc3N(Cc3cccc(OCCN4CCOCC4)c3)C2)cc1 (centres unmarked) [Compound 23] | 350 | 870 |
| Oc1cccc(C2COc3cc(O)ccc3N(Cc3cccc(OCCN4CCCCC4)c3)C2)c1 (centres unmarked) [Compound 25] | 22 | 300 |

Next, values leading:

| IC50 [1] [nM] | IC50 (hER-β) [nM] | Structure (SMILES) |
| --- | --- | --- |
| 2900 | > 100000 | COc1cccc(C2COc3cc(OC)ccc3N(C(=O)c3ccc(OCCN(C)C)cc3)C2)c1 (centres unmarked) [Compound 8] |
| 530 | 26000 | CN(C)CCOc1ccc(C(=O)N2CC(c3cccc(O)c3)COc3cc(O)ccc32)cc1 (centres unmarked) [Compound 9] |
| 24 | 1100 | O=C(c1ccc(OCCCl)cc1)N1CC(c2cccc(O)c2)COc2cc(O)ccc21 (centres unmarked) [Compound 14] |
| 100 | 2600 | CC(=O)Oc1cccc(C2COc3cc(OC(C)=O)ccc3N(C(=O)c3ccc(OCCCl)cc3)C2)c1 (centres unmarked) [Compound 15] |
| > 1000 | > 1000 | COCOc1ccc(C2COc3cc(OCOC)ccc3N(Cc3cccc(OCCN4CCOCC4)c3)C2)cc1 (centres unmarked) [Compound 21] |
| 52 | 560 | Oc1ccc(C2COc3cc(O)ccc3N(Cc3cccc(OCCN4CCCCC4)c3)C2)cc1 (centres unmarked) [Compound 22, 7-(4-Hydroxy-phenyl)-9-[3-(2-piperidin-1-yl-ethoxy)-benzyl]-6,7,8,9-tetrahydro-5-oxa-9-aza-benzocyclohepten-3-ol] |
| 56 | 92 | Oc1cccc(C2COc3cc(O)ccc3N(Cc3cccc(OCCCl)c3)C2)c1 (centres unmarked) [Compound 24] |
| > 1000 | > 1000 | CC(C)(C)C(=O)Oc1ccc(C2COc3cc(OC(=O)C(C)(C)C)ccc3N(Cc3cccc(OCCN4CCCCC4)c3)C2)cc1 (centres unmarked) [Compound 26] |
